# According to patent US9486440B2, “Uses of indole-ketones or indolidones as neuro-protective drugs” (UNIVERSITY OF MACAU, priority 2011, dated 2016):
# Assays:
# [1] = tested on: nNOS knockdown PC12 cells; experiment: MPP+ in ShRNA-mediated nNOS knockdown PC12 cells; assay type: cell-based, rat; settings: 20 μM SU5416 2 hours, then 1 mM MPP+ 24 hours
# Procedure: The assay was performed according to the specifications of the manufacturer (MTT kit I; Roche Applied Science). […] After the incubation, 100 μl of the solvating solution (0.01 N HCl in 10% SDS solution) was added to each well for 16-20 hours. The absorbance of the samples was measured at a wavelength of 570 nm with 655 nm as a reference wavelength. Unless otherwise indicated, the extent of MTT conversion in cells exposed to MPP^+ is expressed as a percentage of the control. Cytotoxicity was determined by measuring the release of lactate dehydrogenase (LDH). Briefly, cells were precipitated by centrifugation at 500 g for 5 min at room temperature, 50 μl of the supernatants was transferred into new wells, and LDH was determined using the in vitro toxicology assay kit (Roche). The absorbance of the samples was measured at a wavelength of 490 nm with 655 nm as a reference wavelength. ShRNA against rat nNOS was designed according to […] et al, 2009. […] NM_052799), was used to generate shRNA. […] Sense and antisense oligonucleotides were then annealed and cloned into pG418-GFP vector to express shRNA directed against nNOS under the control of the U6 promoter (GenePharma, Shanghai, China). A negative control shRNA (ShNC) with the same nucleotide composition but lacks significant sequence homology to the genome was also used in the experiments. […]
# [2] = tested on: retinal photoreceptors or ganglion cells; settings: 3 mg of SU4312 every 5 days for 12 weeks; cited from earlier work
# [3] = SU4312 in brain homogenate of rats after i.p. administration (HPLC); assay type: in vivo, rat; settings: 12 mg/kg i.p.
# Procedure: To investigate whether SU4312 could reach the brain, an HPLC method was used to detect SU4312 in the brain homogenate and plasma of rats (Scott et al., 2004; Spitsin et al., 2008). Briefly, after drug administration by i.p., the animals were transcardially perfused with PBS/heparin (1000 U/L). Then rats were sacrificed by decapitation and brain tissue was homogenized. SU4312 in the brain homogenate was extracted with 3 ml […]. After evaporating the solvent, the residue was reconstituted in 50 μl methanol. SU4312 in the brain tissue was identified by an Agilent 1200 Series HPLC coupled with UV detector at a wavelength of 254 nm. Prior to the preparation of brain homogenate, transcardial perfusion with PBS/heparin was conducted in order to remove blood from cerebravascular system so as to avoid the interference of the SU4312 that simply retained in the brain vasculature.
# Plasma concentration of SU4312 was also assayed by an HPLC method. Briefly, after drug administration by i.p., serial blood samples were collected through right internal jugular vein catheterization at various time points post-dosing. The plasma samples were treated with acetonitrile and methanol followed by centrifugation, and 20 μl supernatants were injected into the liquid chromatographic system. The mobile phase consisted of a mixture of methanol and water (80:20, v/v) at a flow rate of 1 ml/min.
# [4] = molecular target: T1, recombinant human inducible NOS (iNOS) (Homo sapiens, UniProt P35228); experiment: In vitro NOS activity assay, iNOS; assay type: biochemical; settings: up to 1 mM
# T1 construct: purchased Alexis Biochemicals (Lausen, Switzerland)
# Procedure: In the in vitro NOS activity assay (Li et al., 2007), purified recombinant human nNOS, endothelial NOS (eNOS), and inducible NOS (iNOS) were bought from Alexis Biochemicals (Lausen, Switzerland). NOS activity was determined by monitoring the conversion of L-[3H]arginine to [3H]citrulline following the instructions provided in the kit (Calbiochem, USA). The reaction mixture contained a final volume of 40 μl with 25 mM Tris-Cl at pH 7.4, 3 μM tetrahydrobiopterin, 1 μM FAD, 1 μM FMN, 1 mM NADPH, 0.6 mM CaCl2, 0.1 μM calmodulin, 2.5 μg of pure NOS enzyme, 5 μl L-[3H]arginine (Perkin Elmer, Waltham, Mass., USA), and different concentrations of the tested reagents. The reaction mixture was incubated at 22° C. for 45 min. The reaction was quenched by adding 400 μl of stopping buffer (50 mM HEPES, pH 5.5, and 5 mM EDTA) for nNOS and eNOS reactions or by heating reactive tubes for iNOS. Unreacted L-[3H]arginine was then trapped by 100 μl of equilibrated resin provided in a spin cup followed by centrifugation for 30 s at 13,200 rpm. The filtrate was quantified by liquid scintillation counting.
# [5] = tested on: CGNs; experiment: Low potassium-induced cell death in CGNs, MTT assay; assay type: cell-based; settings: 5 mM KCl BME medium, 24 hours; sunitinib 0.1-2 μM
# Procedure: Cell viability was measured by MTT assay at 24 hours after low potassium challenge. […] After 24 hours of low potassium challenge, CGNs were assayed with an FDA/PI double staining. […] After 24 hours of low potassium challenge, CGNs were assayed with Hoechst staining. The number of apoptotic nuclei with condensed chromatin were counted from representative Hoechst staining photomicrographs and represented as a percentage of the total number of nuclei counted. […] Intracellular NO level was measured using DAF-FM diacetate as a probe at 4 hour after low potassium challenge. Data, expressed as percentage of control (CGNs were cultured in high potassium medium), were the mean±SEM of three separate experiments; *p<0.05 and **p<0.01 versus low potassium group in (A) and (D) or versus control in (C); ^##p<0.01 versus low potassium group in (C) (Turkey's test).
# It was previously reported that low potassium could induce typical apoptosis in cerebellar granule neurons (CGNs) (Fu et al., 2008). […] Cell viability was measured with an MTT assay 24 hours after the low potassium treatment.
smiles,measurement,setting,value
"Cc1cc(C)c(/C=C2\C(=O)Nc3ccccc32)[nH]1 [SU5416, (3Z)-3-[(3,5-dimethyl-1H-pyrrol-2-yl)methylidene]-1,3-dihydro-2H-indol-2-one]","MPP+-induced cell death in nNOS knockdown PC12 cells (MTT, LDH)",[1],no longer able to inhibit MPP^+-induced cell death
"CN(C)c1ccc(C=C2C(=O)Nc3ccccc32)cc1 [SU4312, 3-[4-(dimethylamino)benzylidenyl]indolin-2-one]",damage to retinal photoreceptors or ganglion cells,[2],did not damage retinal photoreceptors or ganglion cells
same,"detection in the brain, 15 min",[3]; 15 min post-administration,could rapidly penetrate into the brain and be detected in the brain 15 min post-administration
same,"detection in the brain, 60 min",[3]; 60 min after administration,almost no SU4312 was detected in the brain
Clc1ccc(Nc2nnc(Cc3ccncc3)c3ccccc23)cc1 [PTK787/ZK222584],inhibition of recombinant human iNOS,[4],did not inhibit any of the isoforms even at 1 mM
same,low potassium-induced cell death (MTT),[5],at 3 and 10 μM both failed to block neuronal loss in vitro
